Test results: patent publication US20160296586A1, “AGENT FOR PREVENTING OR AM[…] ENDOTHELIAL MALFUNCTION” (KYOWA HAKKO BIO CO., LTD., priority 2012, published 2016)

Test system: normal human umbilical vein endothelial cell (HUVEC)
Assay: NO production: nitrite (NO2) in HUVEC culture supernatant by HPLC
Type: cell-based
Conditions: 24-hour culture, vs control (PBS), FIG. 1
Protocol: A normal human umbilical vein endothelial cell (HUVEC) line available from Clonetics (SanDiego, Calif., USA) was used with EGM-2 Bullet Kit medium containing 2% FBS (Takara Bio). The cells were cultured in at 37° C., in 5% CO2 incubator, and used for experiment after 4 to 6 passages. Citrulline and reduced glutathione were obtained from Kyowa Hakko Bio.
A cell suspension (0.45 mL) with the adjusted initial cell combination of 5×10^5 cells/mL was inoculated in a 24-well plate (IWAKI). After 40-hour culture, the media were replaced with those containing citrulline (final concentration 0.3 mM; citrulline group), reduced glutathione (final concentration 1 mM: high-dose glutathione group), and a citrulline and reduced glutathione mixture (citrulline final concentration 0.3 mM; glutathione final concentration 0.3 mM; citrulline+low -dose glutathione group). Media with the sole addition of solvent (PBS) were used as a control group. After 24-hour culture, the cell culture (100 μL) was centrifuged at 12,000 rpm for 10 minutes, and the concentration of nitrite (NO2), which is the stable NO metabolite, in culture supernatant was quantified by HPLC (ENO-20, EICOM).

| SMILES | effect on NO production (nitrite NO2 concentration in medium) (citrulline final concentration 0.3 mM) | effect on NO production (nitrite NO2 concentration in medium) (reduced glutathione final concentration 1 mM (high-dose)) |
| --- | --- | --- |
| NC(=O)NCCC[C@H](N)C(=O)O [citrulline] | no effect on NO production | – |
| N[C@@H](CCC(=O)N[C@@H](CS)C(=O)NCC(=O)O)C(=O)O [glutathione, reduced glutathione] | – | no effect on NO production |
